Positions of bridges follow the written chain, without caps; N, C: chain ends. Non-standard residues stand in square brackets, D forms with d. Residues, ends and D or L forms follow the SMILES beside them. *: point of attachment. X1 = CC[C@H](C)CCCCC(=O)*; dDab = NCC[C@@H](N)C(=O)O; Dab = NCC[C@H](N)C(=O)O
How the values were obtained:
[1] = test system: K. pneumoniae containing the MCR-1 plasmid; assay type: cell-based, Klebsiella pneumoniae; conditions: for Minimum Inhibitory Concentration, K. pneumoniae 1: strain 1, MCR-1 plasmid; for Minimum Inhibitory Concentration, K. pneumoniae 2: strain 2, MCR-1 plasmid
Protocol: (§1) The polymyxin-resistant pathogenic bacteria used for testing were all sourced from the hospital intensive care unit, isolated and cultured from clinical samples of patients with severe pneumonia. The strain species were identified by the hospital microbiology laboratory, and the presence of the mcr-1 gene in the strains was confirmed by high-throughput sequencing.
(§2) The culture procedure fully referenced Example 1.
(§3) Each bacterial species in the table was tested using 2 strains, denoted as “1” and “2” respectively.

Klebsiella pneumoniae = test: Minimum inhibitory concentration test against common Gram-negative bacteria; assay type: cell-based; conditions: clinical isolate, 37° C., 16 hours, visual reading
Protocol: (§4) The pathogenic bacteria used for testing were all sourced from the intensive care unit of Gulou Hospital, isolated and cultured from clinical samples of patients with severe pneumonia. The strain species were identified by the Microbiology Laboratory of Gulou Hospital. The Gram-negative bacteria here include Escherichia coli, Pseudomonas aeruginosa, Acinetobacter baumannii, Klebsiella pneumoniae, etc.
(§5) A single colony of the test bacteria was inoculated into 5 ml of medium and cultured overnight to saturation. 10 μL of bacterial culture was aspirated and added to 990 μL of fresh medium, mixed well, to obtain a 100-fold diluted bacterial suspension. Then, 20 μL of the 100-fold diluted bacterial suspension was aspirated and added to 980 μL of fresh medium, mixed well. The bacteria obtained at this point were diluted 5000-fold.
(§6) The antimicrobial peptide was dissolved in Dimethyl sulfoxide (DMSO) to obtain a stock solution with a concentration of 12.8 mg/mL. Using DMSO, a two-fold serial dilution was performed for 10 consecutive times.
(§7) Add the 11 gradients of antimicrobial peptide diluted in step 1.1.2 to a 96-well plate, respectively, with the last well containing the same volume of DMSO. Then, add 48 μL of fresh medium to each well. Subsequently, add the 5000-fold diluted bacteria from step 1.1.1 to each well. Mix well. Incubate at 37° C. for 16 hours. Visually determine the concentration at which bacterial growth begins to be inhibited; this is the minimum inhibitory concentration (MIC).

Pseudomonas aeruginosa = test: as above; assay type: cell-based; conditions: clinical isolate, 37° C., 16 hours, visual reading
Protocol: as §4, §5, §6, §7

Acinetobacter baumannii = test: as above; assay type: cell-based; conditions: clinical isolate, 37° C., 16 hours, visual reading
Protocol: as §4, §5, §6, §7

[2] = test system: P. aeruginosa containing the MCR-1 plasmid; assay type: cell-based, Pseudomonas aeruginosa; conditions: for Minimum Inhibitory Concentration, P. aeruginosa 1: strain 1, MCR-1 plasmid; for Minimum Inhibitory Concentration, P. aeruginosa 2: strain 2, MCR-1 plasmid
Protocol: as §1, §2, §3

E. coli = test: Minimum inhibitory concentration test against common Gram-negative bacteria; assay type: cell-based, Escherichia coli; conditions: clinical isolate, 37° C., 16 hours, visual reading
Protocol: as §4, §5, §6
as §7, with “Visually determine the concentration at which bacterial growth begins to be inhibited; this is the minimum inhibitory concentration (MIC).” left out

[3] = test system: E. coli containing the MCR-1 plasmid; assay type: cell-based, Escherichia coli; conditions: for Minimum Inhibitory Concentration, E. coli 1: strain 1, MCR-1 plasmid; for Minimum Inhibitory Concentration, E. coli 2: strain 2, MCR-1 plasmid
Protocol: as §1, §2, §3

[4] = test system: A. baumannii containing the MCR-1 plasmid; assay type: cell-based, Acinetobacter baumannii; conditions: for Minimum Inhibitory Concentration, A. baumannii 1: strain 1, MCR-1 plasmid; for Minimum Inhibitory Concentration, A. baumannii 2: strain 2, MCR-1 plasmid
Protocol: as §1, §2, §3

[5] = test system: polymyxin-resistant Acinetobacter baumannii; test: Efficacy in neutropenic mice with thigh infection; assay type: in vivo; conditions: neutropenic CD1 mice, 20 mg/kg subcutaneous at 2, 8, 14, 24 hours post-infection, endpoint 24 hours
Source text: All mice used in this part passed the ethical review of animal research at Nanjing University. To avoid the influence of the mouse's innate immune system on the intrinsic activity of the antimicrobial peptide, we constructed a neutropenic mouse model. This experiment used 6-week-old CD1 female mice (20-25 g). Mice were randomly housed in individually ventilated cages and maintained according to the standards of the Association for Assessment and Accreditation of Laboratory Animal Care International. The room was set to a 12-hour light cycle, temperature of 21° C., and humidity of 30%. […]
At 2, 8, 14, and 24 hours post-infection, mice were subcutaneously injected with 100 μL of vehicle (0.9% saline), Polymyxin E (Colistin) (20 mg/kg), or the antimicrobial peptide (20 mg/kg). […] All mice were closely monitored post-infection for signs of illness. Any abnormal clinical symptoms were recorded. […] Thigh muscles were processed aseptically, weighed, homogenized, and plated for CFU counts on MH agar containing 50 μg/mL gentamicin to quantify the bacterial burden. Efficacy was determined by the reduction in bacterial burden in the thighs compared to the […] control group. All graphical data were statistically analyzed using GraphPad Prism software (Prism v.9). Differences in burden between test and control groups were assessed using one-way analysis. […]

Structure (SMILES)	Minimum Inhibitory Concentration, K. pneumoniae 1 [1] [µg/mL]	Minimum Inhibitory Concentration, K. pneumoniae 2 [1] [µg/mL]	Minimum Inhibitory Concentration (MIC) (Klebsiella pneumoniae) [mg/L]	Minimum Inhibitory Concentration (MIC) (Pseudomonas aeruginosa) [mg/L]	Minimum Inhibitory Concentration (MIC) (Acinetobacter baumannii) [mg/L]	Minimum Inhibitory Concentration, P. aeruginosa 1 [2] [µg/mL]	Minimum Inhibitory Concentration, P. aeruginosa 2 [2] [µg/mL]	Minimum Inhibitory Concentration (MIC) (E. coli) [mg/L]	Minimum Inhibitory Concentration, E. coli 1 [3] [µg/mL]	Minimum Inhibitory Concentration, E. coli 2 [3] [µg/mL]	Minimum Inhibitory Concentration, A. baumannii 1 [4] [µg/mL]	Minimum Inhibitory Concentration, A. baumannii 2 [4] [µg/mL]	bacterial burden in thighs (CFU) [5]
CC[C@H](C)CCCCC(=O)N[C@@H](CCN)C(=O)N[C@H](C(=O)N[C@H](CCN)C(=O)N[C@H]1CCNC(=O)[C@H](CC(C)C)NC(=O)[C@H](CCN)NC(=O)[C@H](CCN)NC(=O)[C@H]([C@@H](C)CC)NC(=O)[C@@H](CC(C)C)NC(=O)[C@H](CCN)NC1=O)[C@@H](C)O [Antimicrobial Peptide, {6-ME-Octanoic acid}-{Dab}-{Thr}-{D-Dab}-{Dab}-{Dab}-{D-Leu}-{Ile}-{Dab}-{Dab}-{Leu}] (X1-[Dab]T[dDab][Dab][Dab][dL]I[Dab][Dab]L; lactam 4-C)	1	2	8	4	16	2	1	4	2	2	4	2	significant reduction in colony-forming units (CFU)
CC[C@H](C)CCCCC(=O)N[C@@H](CCN)C(=O)N[C@H](C(=O)N[C@@H](CCN)C(=O)N[C@H]1CCNC(=O)[C@H]([C@@H](C)O)NC(=O)[C@H](CCN)NC(=O)[C@H](CCN)NC(=O)[C@H](CC(C)C)NC(=O)[C@@H](CC(C)C)NC(=O)[C@H](CCN)NC1=O)[C@@H](C)O [Colistin, reference compound] (X1-[Dab]T[Dab][Dab][Dab][dL]L[Dab][Dab]T; lactam 4-C)	64	128	–	–	–	64	128	–	128	256	128	128	did not reduce the count of Acinetobacter baumannii

— patent US20260258085A1, “NOVEL DECAPEPTIDE AND USE THEREOF IN ANTIBACTERIAL” (METHYCURE BIOTECH CORP., priority 2023, published 2026)
